Reference: US11529334B2, “Pharmaceutical composition for treating or preventing Parkinson's disease comprising STT as an active ingredient” (GACHON UNIVERSITY OF INDUSTRY—ACADEMIC COOPERATION …, priority 2019, dated 2022)

Target: T1, TPP domain of DUSP10 (Homo sapiens, UniProt Q9Y6W6)
T1 sequence (Q9Y6W6 321-464 limits assumed): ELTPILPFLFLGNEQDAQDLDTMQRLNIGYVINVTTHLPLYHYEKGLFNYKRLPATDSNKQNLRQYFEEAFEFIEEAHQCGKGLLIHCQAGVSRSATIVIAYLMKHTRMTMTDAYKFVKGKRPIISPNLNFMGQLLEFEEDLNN
Test: SPR (Surface Plasmon Resonance) assay, Reichert SR7500DC
Type: binding
Experimental: SPR (Surface Plasmon Resonance) assay was performed using Reichert SR7500DC system to confirm the presence or absence of interaction between the compounds above and the TPP domain of DUSP10.

[1] = Table 1, running buffer 1xPBS, 2% DMSO
[2] = Table 1, running buffer 1xPBS, pH 7.4

O=S(=O)(O)CCN1CCOCC1 [MES]
interaction with the TPP domain (in words) (SPR): weak interaction
Ka (association rate) [1]: 2.90(4) M−^1-s−^1
Kd [1]: 12.3 mM
Kd (dissociation rate) [1]: 0.0357(6) s−^1
Ka (association rate) [2]: 3.50(5) M−^1-s−^1
Kd [2]: 17.9 mM
Kd (dissociation rate) [2]: 0.0627(9) s−^1
Kd (Table 2, 0-200 mM analyte): 63 mM
Ka (Table 2, higher analyte concentrations (MES up to 200 mM, STT up to 10 mM)): 0.152(7) M−^1-s−^1
dissociation rate constant (kd) (Table 2, second column headed Ka, higher analyte concentrations): 0.0096(2) s−^1
